Data as given in the NIST ThermoML archive (doi:10.1021/je800633a).
Numbers after ± are expanded uncertainties.

Columns and labels:
[1] = 81.5 kPa, Liquid; for viscosity: Capillary tube (Ostwald / Ubbelohde) method
[2] = refractive index (Na D-line) (dimensionless); conditions: 298.15 K; 101.33 kPa; Liquid; Standard Abbe refractometry
[3] = xn = mol fraction of the nth substance listed; conditions: 81.5 kPa, Liquid; for viscosity: Capillary tube (Ostwald / Ubbelohde) method
[4] = refractive index (Na D-line) (dimensionless); xn = mol fraction of the nth substance listed; conditions: 303.15 K, 81.5 kPa, Liquid

CC(O)CO (stereo not drawn) [1,2-propanediol]
[1]
Conditions | mass density [kg/m3] | viscosity [mPa·s]
298.15 K | 1032.61 ± 0.24 | –
303.15 K | 1028.9 ± 0.23 | 33.88 ± 0.58
308.15 K | 1025.16 ± 0.23 | –

Conditions | refractive index
[2] | 1.4323 ± 0.0007

CC(O)CO (stereo not drawn) [1,2-propanediol] + CCO
[3]
Conditions | mass density, 298.15 K [kg/m3] | mass density, 303.15 K [kg/m3] | mass density, 308.15 K [kg/m3] | viscosity, 303.15 K [mPa·s]
x2 = 0.0492 | 1023.64 ± 0.22 | 1019.91 ± 0.21 | 1016.16 ± 0.21 | –
x2 = 0.0738 | – | – | – | 25.01 ± 0.37
x2 = 0.122 | 1009.9 ± 0.19 | 1006.14 ± 0.19 | 1002.31 ± 0.18 | –
x2 = 0.1285 | – | – | – | 20.47 ± 0.28
x2 = 0.2072 | 993.05 ± 0.18 | 989.22 ± 0.19 | 985.36 ± 0.19 | –
x2 = 0.2099 | – | – | – | 15.2 ± 0.18
x2 = 0.2706 | 979.89 ± 0.2 | 976.03 ± 0.2 | 972.12 ± 0.21 | –
x2 = 0.2725 | – | – | – | 12.14 ± 0.13
x2 = 0.3633 | 959.86 ± 0.22 | 955.92 ± 0.22 | 951.97 ± 0.23 | –
x2 = 0.3701 | – | – | – | 8.55 ± 0.08
x2 = 0.4389 | – | – | – | 6.68 ± 0.06
x2 = 0.4478 | 940.7 ± 0.24 | 936.73 ± 0.25 | 932.7 ± 0.25 | –
x2 = 0.5193 | – | – | – | 5.03 ± 0.04
x2 = 0.5261 | 921.85 ± 0.27 | 917.81 ± 0.27 | 913.76 ± 0.28 | –
x2 = 0.5871 | – | – | – | 3.98 ± 0.03
x2 = 0.6103 | 900.63 ± 0.29 | 896.55 ± 0.3 | 892.41 ± 0.31 | –
x2 = 0.677 | 882.99 ± 0.32 | 878.84 ± 0.32 | 874.69 ± 0.33 | –
x2 = 0.678 | – | – | – | 2.9 ± 0.02
x2 = 0.7554 | – | – | – | 2.23 ± 0.02
x2 = 0.7613 | 859.54 ± 0.35 | 855.37 ± 0.35 | 851.13 ± 0.36 | –
x2 = 0.8185 | – | – | – | 1.8 ± 0.01
x2 = 0.8332 | 838.49 ± 0.38 | 834.25 ± 0.38 | 829.99 ± 0.39 | –
x2 = 0.9171 | – | – | – | 1.29 ± 0.01
x2 = 0.9232 | 810.57 ± 0.42 | 806.3 ± 0.42 | 801.98 ± 0.43 | –

[4]
Conditions | refractive index
x2 = 0.0738 | 1.426 ± 0.0008
x2 = 0.1285 | 1.4233 ± 0.0008
x2 = 0.2099 | 1.4187 ± 0.0008
x2 = 0.2725 | 1.4153 ± 0.0008
x2 = 0.3701 | 1.4093 ± 0.0008
x2 = 0.4389 | 1.4052 ± 0.0008
x2 = 0.5193 | 1.3998 ± 0.0008
x2 = 0.5871 | 1.3946 ± 0.0008
x2 = 0.678 | 1.3876 ± 0.0008
x2 = 0.7554 | 1.3817 ± 0.0008
x2 = 0.8185 | 1.3765 ± 0.0008
x2 = 0.9171 | 1.3672 ± 0.0008

CC(O)CO (stereo not drawn) [1,2-propanediol] + CO
[3]
Conditions | mass density, 298.15 K [kg/m3] | mass density, 303.15 K [kg/m3] | mass density, 308.15 K [kg/m3] | viscosity, 303.15 K [mPa·s]
x2 = 0 | 1032.61 ± 0.24 | 1028.9 ± 0.23 | 1025.16 ± 0.23 | –
x2 = 0.0533 | 1026.26 ± 0.22 | 1022.52 ± 0.22 | 1018.75 ± 0.21 | –
x2 = 0.0688 | – | – | – | 25.51 ± 0.38
x2 = 0.1319 | 1016.21 ± 0.2 | 1012.45 ± 0.2 | 1008.64 ± 0.19 | –
x2 = 0.1545 | – | – | – | 18.49 ± 0.24
x2 = 0.2246 | 1003.13 ± 0.18 | 999.31 ± 0.17 | 995.47 ± 0.18 | –
x2 = 0.2606 | – | – | – | 12.31 ± 0.14
x2 = 0.282 | 994.24 ± 0.17 | 990.39 ± 0.18 | 986.48 ± 0.19 | –
x2 = 0.3086 | – | – | – | 10.21 ± 0.11
x2 = 0.3666 | – | – | – | 8.11 ± 0.08
x2 = 0.3841 | 976.76 ± 0.19 | 972.84 ± 0.2 | 968.91 ± 0.21 | –
x2 = 0.4494 | – | – | – | 5.81 ± 0.05
x2 = 0.4496 | 964.21 ± 0.21 | 960.26 ± 0.21 | 956.25 ± 0.22 | –
x2 = 0.51 | – | – | – | 4.54 ± 0.04
x2 = 0.53 | 947.16 ± 0.23 | 943.12 ± 0.24 | 939.07 ± 0.24 | –
x2 = 0.6083 | 928.51 ± 0.25 | 924.41 ± 0.26 | 920.25 ± 0.27 | –
x2 = 0.6098 | – | – | – | 2.99 ± 0.02
x2 = 0.6811 | – | – | – | 2.21 ± 0.02
x2 = 0.7006 | 903.39 ± 0.29 | 899.17 ± 0.29 | 894.96 ± 0.3 | –
x2 = 0.7601 | 884.96 ± 0.31 | 880.67 ± 0.32 | 876.35 ± 0.33 | –
x2 = 0.7687 | – | – | – | 1.51 ± 0.01
x2 = 0.8363 | – | – | – | 1.11 ± 0.01
x2 = 0.8454 | 855.03 ± 0.35 | 850.61 ± 0.36 | 846.16 ± 0.37 | –
x2 = 0.9133 | 827.35 ± 0.39 | 823.02 ± 0.4 | 818.45 ± 0.41 | –
x2 = 0.9225 | – | – | – | 0.75 ± 0.01

[4]
Conditions | refractive index
x2 = 0.0688 | 1.4262 ± 0.0008
x2 = 0.1545 | 1.422 ± 0.0008
x2 = 0.2606 | 1.4155 ± 0.0008
x2 = 0.3086 | 1.4129 ± 0.0008
x2 = 0.3666 | 1.4096 ± 0.0008
x2 = 0.4494 | 1.4029 ± 0.0008
x2 = 0.51 | 1.3983 ± 0.0008
x2 = 0.6098 | 1.3883 ± 0.0008
x2 = 0.6811 | 1.3783 ± 0.0008
x2 = 0.7687 | 1.3665 ± 0.0008
x2 = 0.8363 | 1.3571 ± 0.0008
x2 = 0.9225 | 1.3404 ± 0.0008

CCO [ethanol]
[1]
Conditions | mass density [kg/m3] | viscosity [mPa·s]
298.15 K | 785.18 ± 0.45 | –
303.15 K | 780.87 ± 0.46 | 0.994 ± 0.009
308.15 K | 776.52 ± 0.47 | –

Conditions | refractive index
[2] | 1.3595 ± 0.0007

CCO [ethanol] + CC(O)CO
[3], x1 = 1
Conditions | mass density [kg/m3]
298.15 K | 785.18 ± 0.45
303.15 K | 780.87 ± 0.46
308.15 K | 776.52 ± 0.47

CO [methanol]
[1]
Conditions | mass density [kg/m3] | viscosity [mPa·s]
298.15 K | 786.57 ± 0.45 | –
303.15 K | 781.85 ± 0.46 | 0.525 ± 0.007
308.15 K | 777.1 ± 0.47 | –

Conditions | refractive index
[2] | 1.327 ± 0.0007

CO [methanol] + CC(O)CO
[3], x1 = 1
Conditions | mass density [kg/m3]
298.15 K | 786.57 ± 0.45
303.15 K | 781.85 ± 0.46
308.15 K | 777.1 ± 0.47

CO [methanol] + CCO
[3], 303.15 K
Conditions | viscosity [mPa·s]
x1 = 0.0417 | 0.968 ± 0.009
x1 = 0.1476 | 0.906 ± 0.008
x1 = 0.2214 | 0.865 ± 0.008
x1 = 0.2952 | 0.828 ± 0.008
x1 = 0.3644 | 0.793 ± 0.008
x1 = 0.4488 | 0.753 ± 0.008
x1 = 0.529 | 0.717 ± 0.008
x1 = 0.5995 | 0.685 ± 0.007
x1 = 0.6859 | 0.648 ± 0.007
x1 = 0.7442 | 0.624 ± 0.007
x1 = 0.832 | 0.588 ± 0.007
x1 = 0.9166 | 0.556 ± 0.007

[4]
Conditions | refractive index
x1 = 0.0417 | 1.3567 ± 0.0008
x1 = 0.1476 | 1.3541 ± 0.0008
x1 = 0.2214 | 1.3522 ± 0.0008
x1 = 0.2952 | 1.3502 ± 0.0008
x1 = 0.3644 | 1.3485 ± 0.0008
x1 = 0.4488 | 1.3462 ± 0.0008
x1 = 0.529 | 1.3437 ± 0.0008
x1 = 0.5995 | 1.3415 ± 0.0008
x1 = 0.6859 | 1.3385 ± 0.0008
x1 = 0.7442 | 1.3363 ± 0.0008
x1 = 0.832 | 1.3328 ± 0.0008
x1 = 0.9166 | 1.3286 ± 0.0008
